# Where a SMILES comes first, the peptide text is derived from it. The star is where a group is joined. Succinyl(4-O-cholesteryl) = CC(C)CCC[C@@H](C)[C@H]1CC[C@H]2[C@@H]3CC=C4C[C@@H](OC(=O)CCC(=O)*)CC[C@]4(C)[C@H]3CC[C@]12C
# Key:
# dendritic cells (DC) = assay: Maturation of dendritic cells (flow cytometry); type: cell-based, mouse; settings: 16 h incubation; vs NS group, statistically significant
# Description: The maturation of dendritic cells (DC) largely determines the immune response or tolerance of the body. […] Therefore, we detected the effect of DP7-C adjuvant on dendritic cell maturation by flow cytometry.
# The experimental steps are as follows: • (1) Isolate C57/BL mouse primary bone marrow cells and incubate in the induced medium containing 10 ng/ml of GM-CSF and 10 ng/ml of IL-4 for 5 days. • (2) Add the DP7-C adjuvant into DC cell culture, mix well, and incubate for 16 h. • (3) Collect the stimulated DC cells, wash them twice with PBS, re-suspend the cells in 100 μL of PBS, add 1 μL of anti-mouse CD16/CD32, and block at 4° C. for 30 min. • (4) Wash with PBS for 3 times, add 1 μg of FITC-anti-CD80, APC-anti-CD86 and PE-anti-MHC-II, incubate at room temperature for 30 min, wash PBS for 3 times and re-suspend in 200 μL of PBS for flow cytometry.
# [1] = test system: C26 mouse colon cancer peritoneal metastasis; assay: C26 mouse colon cancer peritoneal metastasis model; type: in vivo
# Description: In order to further characterize the application potential of DP7-C micelles in tumor therapy, we established a C26 mouse colon cancer peritoneal metastasis model and used DP7-C to transmit anti-VEGF siRNA therapeutic genes for therapeutic research. • (1) Establishment of abdominal metastasis model: on day 0, female BALB/c mice aged 6-8 weeks are intraperitoneally injected with 0.1 ml of cell suspension (containing about 1×10^5 C26 cells). • (2) On day 3, mice are randomly divided into 4 groups, 8 mice for each group, and are labeled. • (3) Four groups of mice are intraperitoneally injected with 10 doses of normal saline (blank control group), blank DP7-C micelle (17.5 μg), DP7-C/no-sense control siRNA (Scramble siRNA) complex (17.5 μg/3.5 μg) or DP7-C/VEGF siRNA complex (17.5 μg/3.5 μg) respectively. • (4) On day 20, when the mice in the control group are already very weak, all the mice are killed by cervical dislocation; the tumor tissues in the abdominal cavity as well as the heart, liver, spleen, lung and kidney tissues are immediately collected, weighed and analyzed. The ascites of each group of mice is also collected and measured, and CD31 immunohistochemical staining is performed on tumor tissues of each experimental group. The collected heart, liver, spleen, lung and kidney tissues are analyzed by HE staining.
# splenic lymphocytes = assay: Cellular immune response of splenic lymphocytes (intracellular cytokine flow cytometry); type: cell-based, mouse; settings: spleen of immunized mice, OVA restimulation
# From the text: […]
# DC cells = assay: Uptake of OVA antigen by dendritic cells (flow cytometry); type: cell-based, mouse; settings: 3 h
# Description: DC cells are the most powerful antigen presenting cells in the body, which can absorb foreign substances, process and present them to T cells to stimulate immune response. DC cells play an important role in T cell immune response and production of T cell dependent antibody. We examined the effect of DP7-C on DC presenting antigen by flow cytometry.
# The experimental steps are as follows: • (1) Isolate C57/BL mouse primary bone marrow cells and incubate in the induced medium containing 10 ng/ml of GM-CSF and 10 ng/ml of IL-4 for 5 days. • (2) Add the OVA protein markers FITC, OVA or DP7-C/OVA into DC cell culture, mix well and incubate for 3 h. • (3) Collect the stimulated DC cells, wash with PBS twice, re-suspend the cells in 300 μL of PBS, and perform flow cytometry.
# [2] = intraperitoneal injection, 10 doses, day 20
smiles,measurement,setting,value
"CC[C@H](C)[C@H](NC(=O)[C@H](CCCNC(=N)N)NC(=O)[C@H](Cc1c[nH]c2ccccc12)NC(=O)[C@H](CCC(N)=O)NC(=O)[C@@H](NC(=O)CCC(=O)O[C@H]1CC[C@@]2(C)C(=CC[C@H]3[C@@H]4CC[C@H]([C@H](C)CCCC(C)C)[C@@]4(C)CC[C@@H]32)C1)C(C)C)C(=O)N[C@@H](CCCNC(=N)N)C(=O)N[C@H](C(=O)N[C@@H](C)C(=O)N[C@H](C(=O)N[C@H](C(=O)N[C@@H](CCCNC(=N)N)C(=O)N[C@@H](CCCCN)C(N)=O)[C@@H](C)CC)C(C)C)C(C)C [DP7-C, Chol-suc-VQWRIRVAVIRK-NH2] ({Succinyl(4-O-cholesteryl)}-VQWRIRVAVIRK-NH2)","expression of MHC II, CD80 and CD86",dendritic cells (DC),increased
same,HE staining of major organ tissues,"[1]; heart, liver, spleen, lung, kidney",no significant pathological changes
same,average tumor weight,[1]; [2],7.94 ± 0.53 g
same,volume of ascites (printed as average tumor weight),[1]; [2],1.17 ± 0.51 mL
same,"percentage of CD4+/IFN-γ+, CD8+/IFN-γ+ and CD4+/IL-17A+ cells",splenic lymphocytes,increased
same,uptake of antigen by DC cells,DC cells; 2.5 μg/ml,significantly increase
same,uptake of OVA by DC cells,DC cells; 40 μg/ml,slightly enhanced

# Reference: US20250249110A1, “ANTIMICROBIAL PEPTIDE DERIVATIVE AND USE THEREOF” (SICHUAN UNIVERSITY, priority 2016, published 2025)
